Patent publication US4281121A, “1,3,4-Thiadiazole-2-carboxylic acid derivatives, process for making the same and fungicidal and nematocidal compositions containing same” (Schering Aktiengesellschaft, priority 1978, dated 1981)
Like-named read-outs stand apart in the source and are kept apart here.

What was measured:
Pythium ultimum = test: Threshold concentration test for use of the compounds against Pythium ultimum (infested soil, garden peas); assay type: in vivo; design: key to root evaluation (1-4): 4: white roots without fungous necrosis; 3: white roots, minor fungous necrosis; 2: brown roots, already more pronounced fungous necrosis; 1: heavy fungous necrosis, roots rotted; details: for root evaluation (1-4): 3 weeks; for number of sound peas: 20 grains per dish, 3 weeks at 20-24° C.
Procedure, shortened: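 Pulverulent agents at 20% concentration mixed evenly into soil heavily infested with Pythium ultimum, then garden peas ('Wunder von Kelvedon', 20 per dish) sown at once. After three weeks at 20–24 °C in a hothouse, sound peas counted and roots scored on a 1–4 scale.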

Helminthosporium gram = details: about 5 weeks
Procedure: Treatment of barley seeds infested with Helminthosporium gram
After emergence, the plants were subjected to illumination for 12 hours per day. After about 5 weeks the infested plants were counted and the total number of plants for each test were also counted. The active agents tested were used as pulverulent compositions.

Septoria nodorum = test: Treatment of oat seeds against Septoria nodorum; assay type: in vivo; details: 50 g active agent/100 kg seeds; 4 weeks
Procedure: Effects of the treatment of oat seeds against Septoria nodorum
They were then seeded on a moist substrate for germination. As a control untreated seeds were likewise seeded. At about 6° C. the seed was incubated in an air-conditioned chamber until after 4 weeks the proportion of diseased seeds could be determined and the activity of the fungicidal compounds was calculated on the basis of the following formula: [formula]
The active agents were applied in the form of 20% concentration pulverulent compositions.

Plasmopara viticola = test: Prophylactic leaf treatment of grapevines in the hothouse against Plasmopara viticola; assay type: in vivo
Procedure, shortened: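 Grapevines (5–8 leaves) sprayed to runoff with compound as 20% spray powder, then after drying inoculated on leaf undersides with sporangial suspension (~20,000/ml). Incubated at 22–24 °C, saturated humidity, 3–4 days normal humidity (30–70%), then one day saturated; activity from mean % infested leaf area per treatment.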

[1] = system: Helminthosporium gramineum; test: Seed treatment in open field tests for infestation by Helminthosporium gramineum (barley); assay type: in vivo
Procedure: Seed treatment in open field tests for infestation by Helminthosporium gramineum
The active agents were used in the form of pulverulent compositions. After about 8 months in case of winter barley and after about 3 months in case of summer barley the infested plants were counted and the activity was calculated by the formula [formula]

Fusarium nivale = test: Treatment of rye seeds against Fusarium nivale; assay type: in vivo; details: 100 g/100 kg; about 4 weeks
Procedure: Treatment of rye seeds against Fusarium nivale
Rye seeds with a natural infestation by Fusarium nivale were seeded in earth filled pots and left for germination at about 6° C. Part of the seeds was treated before seeding with the active agents as appears from the subsequent table and part was untreated. After emergence of the seedlings the plants were illuminated with artificial light for 12 hours each day. After about 4 weeks the degree of infestation was determined in percentages. The fungicidal activity was calculated on the basis of the following formula: [formula]
The active agents were used in the form of 20% concentration compositions.

Tilletia caries = test: Treatment of oat seeds infested with Tilletia caries (spore germination); assay type: in vivo
Piricularia oryzae = assay type: in vivo; details: concentration of active agent 0.1 (percentages); 5 days
[2] = system: root gall nematodes (Meloidogyne sp.); test: Threshold concentration test with root gall nematodes (cucumber, infested soil); assay type: in vivo; details: 28 days at 24-27° C.
Source text: Threshold concentration test with root gall nematodes (Meloidogyne sp.)
20% concentration pulverulent active agents as listed in the table below were mixed in a uniform manner with a soil which had been heavily infested by root gall nematodes. After waiting for 3 days the treated soil was placed in two clay dishes of a capacity of 0.5 liter. 10 grain of cucumber seeds of the type "Guntruud" were placed into each dish.
Thereafter, the contents of the dishes were permitted to develop at a temperature of 24° to 27° C. for a time of 28 days in a hothouse. The cucumber roots were then washed out and were examined in a water bath regarding nematode infestation. The reduction of the infestation by the active agents as compared with untreated control material was determined in percentages.
The nematocidal activity was calculated by the formula
A=the infestation in the untreated control material and
B=the infestation after treatment.

[3] = concentration of active agent 0.025 (unit not given)
[4] = summer barley, 25 g active agent/100 kg barley, about 3 months
[5] = summer barley, 50 g active agent/100 kg barley, about 3 months
[6] = summer barley, 100 g active agent/100 kg barley, about 3 months
[7] = winter barley, 50 g active agent/100 kg barley, about 8 months
[8] = winter barley, 100 g active agent/100 kg barley, about 8 months

SMILES	root evaluation (1-4) (Pythium ultimum; 20 mg/l soil)	number of sound peas (Pythium ultimum; 20 mg/l soil)	root evaluation (1-4) (Pythium ultimum; 40 mg/l soil)	number of sound peas (Pythium ultimum; 40 mg/l soil)	root evaluation (1-4) (Pythium ultimum; 80 mg/l soil)	number of sound peas (Pythium ultimum; 80 mg/l soil)	% activity (Helminthosporium gram; 10 g active agent per 100 kg) [%]	% activity (Helminthosporium gram; 20 g active agent per 100 kg) [%]	% activity (Helminthosporium gram; 50 g active agent per 100 kg) [%]	% activity (Septoria nodorum) [%]	% activity (Plasmopara viticola; [3]) [%]	% activity [1, 4] [%]	% activity [1, 5] [%]	% activity [1, 6] [%]	% activity (Fusarium nivale) [%]	% activity (Tilletia caries; 10 g active agent per 100 kg) [%]	% activity (Tilletia caries; 20 g active agent per 100 kg) [%]	% activity (Tilletia caries; 50 g active agent per 100 kg) [%]	% activity [1, 7] [%]	% activity [1, 8] [%]	further results
C=CCNC(=O)c1nnc(S(=O)(=O)CC)s1 [5-ethylsulfonyl-1,3,4-thiadiazole-2-carboxylic acid-allylamide]	1	11	4	17	4	16	100	100	100	72	99.4	97	100	100	94	100	100	100	–	–	% activity (Plasmopara viticola; concentration of active agent 0.001 (unit not given)): 98%; % activity (Plasmopara viticola; concentration of active agent 0.005 (unit not given)): 96%
CCS(=O)(=O)c1nnc(C(=O)N(C)C)s1 [5-ethylsulfonyl-1,3,4-thiadiazole-2-carboxylic acid-dimethylamide]	4	13	4	13	4	15	–	94	100	86	–	–	99.5	100	100	100	100	100	99.5	100	% activity (Piricularia oryzae): 90%
CCS(=O)(=O)c1nnc(C(=O)NC(C)C)s1 [5-ethylsulfonyl-1,3,4-thiadiazole-2-carboxylic acid-isopropylamide]	3	16	3	15	4	16	95	98	100	86	92	96	100	99.8	–	100	100	100	–	–	% activity (Piricularia oryzae): 99%
CCS(=O)(=O)c1nnc(C(=O)NC)s1 [5-ethylsulfonyl-1,3,4-thiadiazole-2-carboxylic acid-methylamide]	4	17	4	15	4	19	–	91	97	72	–	–	100	100	100	100	100	100	100	100	–
CSc1nnc(C#N)s1 [5-methylthio-1,3,4-thiadiazole-2-carbonitrile]	–	–	–	–	–	–	–	–	–	–	–	–	–	–	–	–	–	–	–	–	Percentage reduction of infestation ([2]; 50 mg per liter soil): 95%; Percentage reduction of infestation ([2]; 100 mg per liter soil): 99%; Percentage reduction of infestation ([2]; 200 mg per liter soil): 100%
